The target of this test is T1, recombinant human AMPK complex, containing α2β1γ2 (Homo sapiens, UniProt P54646+Q9Y478).
T1 construct: hsAMPKα2-552-His, hsAMPKβ1-2-270 and hsAMPKγ-2-569 respectively; hsAMPKβ1-2-270; hsAMPKγ-2-569; His (C); made in house; host or cells: Spodoptera frugiperda Sf21 (baculovirus)
Description: AMPK in vitro activation assay (HTRF). It counts as biochemical. As to conditions: for pEC50: HTRF, recombinant human α2β1γ2 AMPK, 200 μM ATP, biotinylated ACC-CREBp peptide, repeat determinations on separate lines; for Emax: potentiation of AMPK activity as percent over the basal signal (without compound). The method in brief:
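HTRF phosphorylation read-out (Eu-cryptate anti-pS133-CREB, streptavidin-XL665) after a 45 min, 37° C kinase step. This step was initiated by a solution with 200 μM ATP and 2 or 0.08 μM biotinylated ACC-CREBp peptide. Beforehand, compound sat 30 min at room temperature with baculovirus/Sf21 α2β1γ2 in pH 7.0 HEPES buffer; EC50 derived from activation over basal.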
In general terms: Time-resolved FRET reads energy transfer from a long-lived donor to a nearby acceptor.

pEC50: −log10 of the molar value.

T1 sequence (P54646 2-552): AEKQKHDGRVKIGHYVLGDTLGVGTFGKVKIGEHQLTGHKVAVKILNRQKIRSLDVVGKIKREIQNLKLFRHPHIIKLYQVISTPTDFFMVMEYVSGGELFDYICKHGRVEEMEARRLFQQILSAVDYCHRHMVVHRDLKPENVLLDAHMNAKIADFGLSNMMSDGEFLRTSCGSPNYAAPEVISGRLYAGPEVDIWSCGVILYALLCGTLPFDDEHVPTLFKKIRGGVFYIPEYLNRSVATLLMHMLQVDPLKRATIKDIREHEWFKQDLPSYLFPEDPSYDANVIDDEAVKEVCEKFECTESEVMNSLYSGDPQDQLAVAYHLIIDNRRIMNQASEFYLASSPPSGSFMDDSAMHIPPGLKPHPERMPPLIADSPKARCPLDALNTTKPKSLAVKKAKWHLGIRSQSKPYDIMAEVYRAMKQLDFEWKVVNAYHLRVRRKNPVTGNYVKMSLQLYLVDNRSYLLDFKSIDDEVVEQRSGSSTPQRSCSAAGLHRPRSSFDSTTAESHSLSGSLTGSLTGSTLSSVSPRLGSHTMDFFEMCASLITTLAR
T1 sequence (Q9Y478 2-270): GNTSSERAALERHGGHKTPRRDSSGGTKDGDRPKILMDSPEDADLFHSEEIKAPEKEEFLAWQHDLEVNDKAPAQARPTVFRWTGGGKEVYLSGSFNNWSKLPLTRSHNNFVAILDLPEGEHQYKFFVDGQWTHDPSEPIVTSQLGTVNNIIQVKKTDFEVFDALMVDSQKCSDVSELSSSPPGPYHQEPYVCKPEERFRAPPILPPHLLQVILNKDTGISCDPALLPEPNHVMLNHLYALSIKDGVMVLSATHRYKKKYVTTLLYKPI
T1 sequence (Q9UGJ0 2-569 partner limits assumed): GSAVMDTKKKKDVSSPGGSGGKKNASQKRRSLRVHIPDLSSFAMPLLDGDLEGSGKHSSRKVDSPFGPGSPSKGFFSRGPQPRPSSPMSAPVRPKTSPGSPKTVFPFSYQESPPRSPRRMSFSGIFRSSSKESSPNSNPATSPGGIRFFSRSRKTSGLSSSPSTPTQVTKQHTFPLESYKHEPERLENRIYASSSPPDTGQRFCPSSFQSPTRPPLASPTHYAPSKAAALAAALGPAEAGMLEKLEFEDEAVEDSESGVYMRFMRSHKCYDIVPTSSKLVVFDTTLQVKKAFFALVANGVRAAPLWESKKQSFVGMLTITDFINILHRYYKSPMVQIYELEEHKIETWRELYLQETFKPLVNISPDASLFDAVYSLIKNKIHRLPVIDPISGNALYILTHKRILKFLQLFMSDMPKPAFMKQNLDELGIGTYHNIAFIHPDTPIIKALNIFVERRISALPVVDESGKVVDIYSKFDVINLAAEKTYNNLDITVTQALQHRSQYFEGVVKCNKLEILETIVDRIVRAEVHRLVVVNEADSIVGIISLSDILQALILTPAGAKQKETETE

Usually pEC50 stands for the EC50 on a negative log10 scale, so that one unit is a factor of ten. Broadly, the Emax is the size of the effect at its maximum, as opposed to the concentration needed. In the case of `COc1cc(C(O)=C2C(=O)Nc3cc(Cl)c(-c4ccc(OCCCN5CCOCC5)cc4)cc32)on1` [Compound 99, 6-chloro-3-[hydroxy-(3-methoxyisoxazol-5-yl)methylene]-5-[4-(3-morpholinopropoxy)phenyl]indolin-2-one], the pEC50 is 8.30 and the Emax stood at 187%.
On to `COc1cc(C(O)=C2C(=O)Nc3cc(Cl)c(-c4ccc(OCc5cccnc5)cc4)cc32)on1` [Compound 100, 6-chloro-3-[hydroxy-(3-methoxyisoxazol-5-yl)methylene]-5-[4-(3-pyridylmethoxy)phenyl]indolin-2-one], for which the pEC50 is 7.44 and the maximum response (Emax) stood at 159%.
Regarding `Cc1cc(C(O)=C2C(=O)Nc3cc(Cl)c(-c4ccc(OCc5ncccn5)cc4)cc32)on1` [Compound 101, 6-chloro-3-[hydroxy-(3-methylisoxazol-5-yl)methylene]-5-[4-(pyrimidin-2-ylmethoxy)phenyl]indolin-2-one], the pEC50 is 7.20 and the Emax worked out at 159%.
For `O=C1Nc2cc(Cl)c(-c3ccc(N4CCOCC4)cc3)cc2C1=C(O)c1cc(O)no1` [Compound 102, 6-chloro-3-[hydroxy-(3-hydroxyisoxazol-5-yl)methylene]-5-(4-morpholinophenyl)indolin-2-one], the pEC50 is 8.70 and the Emax came to 122%.
On the same counts, the results for `COCCOc1ccc(-c2cc3c(cc2Cl)NC(=O)C3=C(O)c2cc(C)no2)cc1` [Compound 103, 6-chloro-3-[hydroxy-(3-methylisoxazol-5-yl)methylene]-5-[4-(2-methoxyethoxy)phenyl]indolin-2-one] are 7.80 and 114%.
For `CC(=O)NCCOc1ccc(-c2cc3c(cc2Cl)NC(=O)C3=C(O)c2cc(C)no2)cc1` [Compound 104, N-[2-[4-[6-chloro-3-[hydroxy-(3-methylisoxazol-5-yl)methylene]-2-oxo-indolin-5-yl]phenoxy]ethyl]acetamide] the same measures were 7.82 and 107%.
Consider `CCOc1cc(C(O)=C2C(=O)Nc3cc(Cl)c(-c4ccc(-c5cccc(OC)c5O)cc4)cc32)on1` [Compound 105, 6-chloro-3-[(3-ethoxyisoxazol-5-yl)hydroxy-methylene]-5-[4-(2-hydroxy-3-methoxy-phenyl)phenyl]indolin-2-one], for which the pEC50 is 9.52 and the Emax is 74%.
On to `O=C1Nc2cc(Cl)c(-c3ccc(C4(CO)CC4)cc3)cc2C1=C(O)c1cc(C2CC2)no1` [Compound 106, 6-chloro-3-[(3-cyclopropylisoxazol-5-yl)hydroxy-methylene]-5-[4-[1-(hydroxymethyl)cyclopropyl]phenyl]indolin-2-one], for which the pEC50 is 10.00 and the Emax was 155%.
Regarding `Cc1[nH]c(=O)sc1C(O)=C1C(=O)Nc2cc(Cl)c(-c3ccc(N4CCOCC4)cc3)cc21` [Compound 107, 5-[-[6-chloro-5-(4-morpholinophenyl)-2-oxo-indolin-3-ylidene]-hydroxy-methyl]-4-methyl-3H-thiazol-2-one], the pEC50 is 7.44 and the Emax is 104%.
For `COc1cc(F)c(C(O)=C2C(=O)Nc3cc(Cl)c(-c4ccc(N5CCOCC5)cc4)cc32)cc1F` [Compound 108, 6-chloro-3-[(2,5-difluoro-4-methoxy-phenyl)hydroxy-methylene]-5-(4-morpholinophenyl)indolin-2-one], the pEC50 is 8.22 and the Emax amounted to 141%.
For `COc1cccc(-c2ccc(-c3cc4c(cc3Cl)NC(=O)C4=C(O)c3cc(OC(C)C)no3)cc2)c1O` [Compound 109, 6-chloro-3-[hydroxy-(3-isopropoxyisoxazol-5-yl)methylene]-5-[4-(2-hydroxy-3-methoxy-phenyl)phenyl]indolin-2-one] the same measures were 9.22 and 165%.

These data come from US10077237B2 (Sanofi, priority 2013, dated 2018).
